The results in this text go back to US12060347B2 (BRISTOL-MYERS SQUIBB COMPANY, priority 2016, dated 2024).

In this test the target is T1, human PAR4 (Homo sapiens, UniProt Q96RI0).
T1 construct: expressed in transfected cells; host or cells: HEK293 PAR4 Clone 1.2A (BMS Arctic ID 383940)
T1 sequence (Q96RI0 18-385): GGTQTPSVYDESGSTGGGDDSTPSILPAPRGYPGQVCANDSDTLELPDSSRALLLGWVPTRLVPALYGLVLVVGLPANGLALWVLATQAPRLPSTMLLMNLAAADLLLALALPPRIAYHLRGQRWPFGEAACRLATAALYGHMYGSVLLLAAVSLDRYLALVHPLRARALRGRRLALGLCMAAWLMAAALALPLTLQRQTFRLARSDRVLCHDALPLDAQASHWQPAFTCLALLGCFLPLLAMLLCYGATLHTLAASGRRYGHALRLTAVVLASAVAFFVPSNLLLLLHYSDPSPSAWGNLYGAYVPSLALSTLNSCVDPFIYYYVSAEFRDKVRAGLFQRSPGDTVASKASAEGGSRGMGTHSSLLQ
Briefly: PAR4 FLIPR assay: antagonism of agonist-peptide-induced calcium mobilization in PAR4-expressing HEK293 cells. The class given is cell-based. As to conditions: H-Ala-Phe(4-F)-[…]NH2-induced intracellular calcium mobilization, 11-point curves. Background: Calcium assays in cells follow changes in intracellular calcium, usually with a dye or a luminescent sensor.

By IC50 is commonly meant the concentration needed to halve the response being measured. On to `COc1cnc2c(-c3nc4c(Cl)c(F)c(OCCOC(=O)Nc5ccns5)cc4s3)cc(C)cc2n1` [Example 621, 2-((4-chloro-5-fluoro-2-(2-methoxy-7-methylquinoxalin-5-yl)benzo[d]thiazol-6-yl)oxy)ethyl isothiazol-5-ylcarbamate], for which the IC50 turned out to be 8 nM.

Regarding `COc1cnc2c(-c3nc4cc(F)c(OC[C@@H](C)OC(=O)Nc5ccnc(C(=O)N(C)C)c5)cc4s3)cc(C)cc2n1` [Example 447, (R)-1-((5-fluoro-2-(2-methoxy-7-methylquinoxalin-5-yl)benzo[d]thiazol-6-yl)oxy)propan-2-yl (2-(dimethylcarbamoyl)pyridin-4-yl)carbamate], the IC50 was 21 nM. The value for `COC(=O)c1ccc(NC(=O)OCCOc2cc3sc(-c4cc(C)cc5nc(OC)cnc45)nc3c(Cl)c2F)cn1` [Example 361, methyl 5-(((2-((4-chloro-5-fluoro-2-(2-methoxy-7-methylquinoxalin-5-yl)benzo[d]thiazol-6-yl)oxy)ethoxy)carbonyl)amino)picolinate] was 5.5 nM; that for `COc1cnc2c(-c3nc4c(Cl)c(F)c(OCCOC(=O)Nc5ccncc5)cc4s3)cc(C)cc2n1` [Example 335, 2((4-chloro-5-fluoro-2-(2-methoxy-7-methylquinoxalin-5-yl)benzo[d]thiazol-6-yl)oxy)ethyl pyridin-4-ylcarbamate] was 2.5 nM. Next, `COCc1cnc2c(-c3nc4c(F)c(F)c(OCCNS(=O)(=O)c5cccc(F)c5)cc4s3)cc(C)cc2n1` [Example 317, N-(2-((4,5-difluoro-2-(2-(methoxymethyl)-7-methylquinoxalin-5-yl)benzo[d]thiazol-6-yl)oxy)ethyl)-3-fluorobenzenesulfonamide]: 4.5 nM; `COc1cnc2c(-c3nc4c(Cl)c(F)c(O[C@@H](C)[C@@H](C)OC(=O)Nc5ccc(OC)nc5)cc4s3)cc(Cl)cc2c1` [Example 801, (2R,3S)-3-((4-chloro-2-(6-chloro-3-methoxyquinolin-8-yl)-5-fluorobenzo[d]thiazol-6-yl)oxy)butan-2-yl (6-methoxypyridin-3-yl)carbamate]: 2.6 nM; `COc1cnc2c(-c3nc4c(C)cc(OCc5cnc(-c6ccccc6)[nH]5)cc4s3)cc(C)cc2n1` [Example 35, 2-(2-methoxy-7-methylquinoxalin-5-yl)-4-methyl-6-((2-phenyl-1H-imidazol-5-yl)methoxy)benzo[d]thiazole]: 54 nM. As for `COc1cnc2c(-c3nc4cc(F)c(OC[C@@H](C)OC(=O)Nc5ccncc5)cc4s3)cc(C)cc2n1` [Example 349, (R)-1-((5-fluoro-2-(2-methoxy-7-methylquinoxalin-5-yl)benzo[d]thiazol-6-yl)oxy)propan-2-yl pyridin-4-ylcarbamate], the IC50 stood at 2.7 nM. The value for `COc1cnc2c(-c3nc4cc(F)c(OC[C@@H](C)OC(=O)Nc5ccnc(CCO)c5)cc4s3)cc(C)cc2n1` [Example 545, (R)-1-((5-fluoro-2-(2-methoxy-7-methylquinoxalin-5-yl)benzo[d]thiazol-6-yl)oxy)propan-2-yl (2-(2-hydroxyethyl)pyridin-4-yl)carbamate] was 1.5 nM.

Turning to `COc1cnc2c(-c3nc4c(C)cc(OCCNS(=O)(=O)c5ccc(F)cc5)cc4s3)cc(CN)cc2n1` [Example 238, N-(2-((2-(7-(aminomethyl)-2-methoxyquinoxalin-5-yl)-4-methylbenzo[d]thiazol-6-yl)oxy)ethyl)-4-fluorobenzenesulfonamide], the IC50 turned out to be 1300 nM. For `COCc1cnc2c(-c3nc4c(Cl)c(F)c(OC)cc4s3)cc(C)cc2n1` [Example 283, 4-chloro-5-fluoro-6-methoxy-2-(2-(methoxymethyl)-7-methylquinoxalin-5-yl)benzo[d]thiazole], the IC50 came out at 1.9 nM.

For `COc1cnc2c(-c3nc4c(C)cc(OCCOC(=O)Nc5ccnc(C)c5)cc4s3)cc(CO)cc2n1` [Example 129, 2-(2-(7-(hydroxymethyl)-2-methoxyquinoxalin-5-yl)-4-methylbenzo[d]thiazol-6-yloxy)ethyl 2-methylpyridin-4-ylcarbamate], the IC50 came out at 3.2 nM. For `COc1cnc2c(-c3nc4cc(F)c(O[C@@H](C)[C@@H](C)OC(=O)Nc5cnc(CCO)nc5)cc4s3)cc(Cl)cc2c1` [Example 579, (2R,3S)-3-((2-(6-chloro-3-methoxyquinolin-8-yl)-5-fluorobenzo[d]thiazol-6-yl)oxy)butan-2-yl (2-(2-hydroxyethyl)pyrimidin-5-yl)carbamate], the IC50 was 3.3 nM. As to `COc1cnc2c(-c3nc4cc(F)c(OC[C@@H](C)OC(=O)Nc5ccc(OCC(F)(F)CO)nc5)nc4s3)cc(C)cc2n1` [Example 687, (R)-1-((6-fluoro-2-(2-methoxy-7-methylquinoxalin-5-yl)thiazolo[5,4-b]pyridin-5-yl)oxy) propan-2-yl (6-(2,2-difluoro-3-hydroxypropoxy)pyridin-3-yl)carbamate], the IC50 was 0.9 nM. For `COc1cnc2c(-c3nc4cc(F)c(OC[C@@H](C)OC(=O)Nc5ccc(OCCO)nc5)cc4s3)cc(C)cc2n1` [Example 572, (R)-1-((5-fluoro-2-(2-methoxy-7-methylquinoxalin-5-yl)benzo[d]thiazol-6-yl)oxy)propan-2-yl (6-(2-hydroxyethoxy)pyridin-3-yl)carbamate], the IC50 was 0.9 nM. In the case of `Cc1cc(-c2nc3c(Cl)cccc3s2)c2ncc(OC(F)F)nc2c1` [Example 8, 4-chloro-2-(2-(difluoromethoxy)-7-methylquinoxalin-5-yl)benzo[d]thiazole], the IC50 was determined as 8.1 nM.

As for `COCc1cnc2c(-c3nc4c(C5CC5)cc(OCCNS(=O)(=O)c5ccccc5)cc4s3)cc(C)cc2n1` [Example 104, N-(2-(4-cyclopropyl-2-(2-(methoxymethyl)-7-methylquinoxalin-5-yl)benzo[d]thiazol-6-yloxy)ethyl)benzenesulfonamide], the IC50 was 1.7 nM. For the molecule `COc1cnc2c(-c3nc4cc(F)c(O[C@@H](C)[C@@H](C)OC(=O)Nc5cnc(C)nc5)cc4s3)cc(Cl)cc2c1` [Example 645, (2R,3S)-3-((2-(6-chloro-3-methoxyquinolin-8-yl)-5-fluorobenzo[d]thiazol-6-yl)oxy)butan-2-yl (2-methylpyrimidin-5-yl)carbamate], the IC50 was 4.9 nM.

With `Cc1cc(-c2nc3ccc(OCCNC(=O)OC4CCOCC4)cc3s2)c2ncc(OC(F)F)nc2c1` [Example 20, tetrahydro-2H-pyran-4-yl (2-((2-(2-(difluoromethoxy)-7-methylquinoxalin-5-yl)benzo[d]thiazol-6-yl)oxy)ethyl)carbamate], the half-maximal inhibitory concentration (IC50) worked out at 30 nM. Turning to `COc1ccc(NC(=O)OCCOc2cc(C)c3nc(-c4cc(C)cc5nc(OC)cnc45)sc3c2)cn1` [Example 112, 2-(2-(2-methoxy-7-methylquinoxalin-5-yl)-4-methylbenzo[d]thiazol-6-yloxy)ethyl 6-methoxypyridin-3-ylcarbamate], the IC50 came out at 2 nM. Next, `COCc1cnc2c(-c3nc4c(C(O)C(C)(C)C)cc(OC)cc4s3)cc(C)cc2n1` (single isomer, unassigned) [Example 164, 1-(6-methoxy-2-(2-(methoxymethyl)-7-methylquinoxalin-5-yl)benzo[d]thiazol-4-yl)-2,2-dimethylpropan-1-ol]: 0.5 nM; `CCc1cnc2c(-c3cc4ccccc4o3)cc(C)cc2n1` [Example 132, 5-(benzofuran-2-yl)-2-ethyl-7-methylquinoxaline]: 59 nM; `COc1cnc2c(-c3nc4cc(F)c(O[C@@H](C)[C@@H](C)OC(=O)Nc5ccc(C#N)nc5)cc4s3)cc(Cl)cc2n1` [Example 829, (2R,3S)-3-((2-(7-chloro-2-methoxyquinoxalin-5-yl)-5-fluorobenzo[d]thiazol-6-yl)oxy)butan-2-yl (6-cyanopyridin-3-yl)carbamate]: 0.6 nM. Regarding `CCOc1cnc2c(-c3cc4ccccc4o3)cc(C)cc2n1` [Example 661, 5-(benzofuran-2-yl)-2-ethoxy-7-methylquinoxaline], the IC50 was 55 nM. For the molecule `COc1cnc2c(-c3nc4cc(F)c(O[C@@H](C)[C@@H](C)OC(=O)Nc5cnc(O[C@@H](C)CO)nc5)cc4s3)cc(C)cc2n1` [Example 560, (2R,3S)-3-((5-fluoro-2-(2-methoxy-7-methylquinoxalin-5-yl)benzo[d]thiazol-6-yl)oxy)butan-2-yl (2-(((S)-1-hydroxypropan-2-yl)oxy)pyrimidin-5-yl)carbamate], the IC50 is 1.4 nM. Turning to `COc1cnc2c(-c3nc4cc(F)c(OC[C@@H](C)OC(=O)NCCC(N)=O)cc4s3)cc(C)cc2n1` [Example 352, (R)-1-((5-fluoro-2-(2-methoxy-7-methylquinoxalin-5-yl)benzo[d]thiazol-6-yl)oxy)propan-2-yl (3-amino-3-oxopropyl) carbamate], the IC50 worked out at 390 nM. As to `COCCOc1cccc2nc(-c3cc(C)cc4nc(OC(F)F)cnc34)sc12` [Example 75, 2-(2-(difluoromethoxy)-7-methylquinoxalin-5-yl)-7-(2-methoxyethoxy)benzo[d]thiazole], the half-inhibitory concentration (IC50) stood at 14 nM.

With `COc1cnc2c(-c3nc4cc(F)c(OC[C@@H](C)OC(=O)Nc5ccc(C(N)=O)nc5)cc4s3)cc(C)cc2n1` [Example 433, (R)-1-((5-fluoro-2-(2-methoxy-7-methylquinoxalin-5-yl)benzo[d]thiazol-6-yl)oxy)propan-2-yl (6-carbamoylpyridin-3-yl)carbamate], the half-maximal inhibitory concentration (IC50) amounted to 0.6 nM.
